Broadly, the IC50 is the concentration that inhibits the measured activity by half.

For the test, the target named is Genome polyprotein (Dengue virus type 2 (strain 16681-PDK53)) (UniProt P29991). Description: Dengue-2 NS5 methyltransferase inhibitors, primary screen, biochemical, confirmation dose response (AID 588689). To be noted: Dengue-2 NS5 methyltransferase capping enzyme assay.
Chain of Genome polyprotein (Dengue virus type 2 (strain 16681-PDK53)) (P29991 whole entry, looked up): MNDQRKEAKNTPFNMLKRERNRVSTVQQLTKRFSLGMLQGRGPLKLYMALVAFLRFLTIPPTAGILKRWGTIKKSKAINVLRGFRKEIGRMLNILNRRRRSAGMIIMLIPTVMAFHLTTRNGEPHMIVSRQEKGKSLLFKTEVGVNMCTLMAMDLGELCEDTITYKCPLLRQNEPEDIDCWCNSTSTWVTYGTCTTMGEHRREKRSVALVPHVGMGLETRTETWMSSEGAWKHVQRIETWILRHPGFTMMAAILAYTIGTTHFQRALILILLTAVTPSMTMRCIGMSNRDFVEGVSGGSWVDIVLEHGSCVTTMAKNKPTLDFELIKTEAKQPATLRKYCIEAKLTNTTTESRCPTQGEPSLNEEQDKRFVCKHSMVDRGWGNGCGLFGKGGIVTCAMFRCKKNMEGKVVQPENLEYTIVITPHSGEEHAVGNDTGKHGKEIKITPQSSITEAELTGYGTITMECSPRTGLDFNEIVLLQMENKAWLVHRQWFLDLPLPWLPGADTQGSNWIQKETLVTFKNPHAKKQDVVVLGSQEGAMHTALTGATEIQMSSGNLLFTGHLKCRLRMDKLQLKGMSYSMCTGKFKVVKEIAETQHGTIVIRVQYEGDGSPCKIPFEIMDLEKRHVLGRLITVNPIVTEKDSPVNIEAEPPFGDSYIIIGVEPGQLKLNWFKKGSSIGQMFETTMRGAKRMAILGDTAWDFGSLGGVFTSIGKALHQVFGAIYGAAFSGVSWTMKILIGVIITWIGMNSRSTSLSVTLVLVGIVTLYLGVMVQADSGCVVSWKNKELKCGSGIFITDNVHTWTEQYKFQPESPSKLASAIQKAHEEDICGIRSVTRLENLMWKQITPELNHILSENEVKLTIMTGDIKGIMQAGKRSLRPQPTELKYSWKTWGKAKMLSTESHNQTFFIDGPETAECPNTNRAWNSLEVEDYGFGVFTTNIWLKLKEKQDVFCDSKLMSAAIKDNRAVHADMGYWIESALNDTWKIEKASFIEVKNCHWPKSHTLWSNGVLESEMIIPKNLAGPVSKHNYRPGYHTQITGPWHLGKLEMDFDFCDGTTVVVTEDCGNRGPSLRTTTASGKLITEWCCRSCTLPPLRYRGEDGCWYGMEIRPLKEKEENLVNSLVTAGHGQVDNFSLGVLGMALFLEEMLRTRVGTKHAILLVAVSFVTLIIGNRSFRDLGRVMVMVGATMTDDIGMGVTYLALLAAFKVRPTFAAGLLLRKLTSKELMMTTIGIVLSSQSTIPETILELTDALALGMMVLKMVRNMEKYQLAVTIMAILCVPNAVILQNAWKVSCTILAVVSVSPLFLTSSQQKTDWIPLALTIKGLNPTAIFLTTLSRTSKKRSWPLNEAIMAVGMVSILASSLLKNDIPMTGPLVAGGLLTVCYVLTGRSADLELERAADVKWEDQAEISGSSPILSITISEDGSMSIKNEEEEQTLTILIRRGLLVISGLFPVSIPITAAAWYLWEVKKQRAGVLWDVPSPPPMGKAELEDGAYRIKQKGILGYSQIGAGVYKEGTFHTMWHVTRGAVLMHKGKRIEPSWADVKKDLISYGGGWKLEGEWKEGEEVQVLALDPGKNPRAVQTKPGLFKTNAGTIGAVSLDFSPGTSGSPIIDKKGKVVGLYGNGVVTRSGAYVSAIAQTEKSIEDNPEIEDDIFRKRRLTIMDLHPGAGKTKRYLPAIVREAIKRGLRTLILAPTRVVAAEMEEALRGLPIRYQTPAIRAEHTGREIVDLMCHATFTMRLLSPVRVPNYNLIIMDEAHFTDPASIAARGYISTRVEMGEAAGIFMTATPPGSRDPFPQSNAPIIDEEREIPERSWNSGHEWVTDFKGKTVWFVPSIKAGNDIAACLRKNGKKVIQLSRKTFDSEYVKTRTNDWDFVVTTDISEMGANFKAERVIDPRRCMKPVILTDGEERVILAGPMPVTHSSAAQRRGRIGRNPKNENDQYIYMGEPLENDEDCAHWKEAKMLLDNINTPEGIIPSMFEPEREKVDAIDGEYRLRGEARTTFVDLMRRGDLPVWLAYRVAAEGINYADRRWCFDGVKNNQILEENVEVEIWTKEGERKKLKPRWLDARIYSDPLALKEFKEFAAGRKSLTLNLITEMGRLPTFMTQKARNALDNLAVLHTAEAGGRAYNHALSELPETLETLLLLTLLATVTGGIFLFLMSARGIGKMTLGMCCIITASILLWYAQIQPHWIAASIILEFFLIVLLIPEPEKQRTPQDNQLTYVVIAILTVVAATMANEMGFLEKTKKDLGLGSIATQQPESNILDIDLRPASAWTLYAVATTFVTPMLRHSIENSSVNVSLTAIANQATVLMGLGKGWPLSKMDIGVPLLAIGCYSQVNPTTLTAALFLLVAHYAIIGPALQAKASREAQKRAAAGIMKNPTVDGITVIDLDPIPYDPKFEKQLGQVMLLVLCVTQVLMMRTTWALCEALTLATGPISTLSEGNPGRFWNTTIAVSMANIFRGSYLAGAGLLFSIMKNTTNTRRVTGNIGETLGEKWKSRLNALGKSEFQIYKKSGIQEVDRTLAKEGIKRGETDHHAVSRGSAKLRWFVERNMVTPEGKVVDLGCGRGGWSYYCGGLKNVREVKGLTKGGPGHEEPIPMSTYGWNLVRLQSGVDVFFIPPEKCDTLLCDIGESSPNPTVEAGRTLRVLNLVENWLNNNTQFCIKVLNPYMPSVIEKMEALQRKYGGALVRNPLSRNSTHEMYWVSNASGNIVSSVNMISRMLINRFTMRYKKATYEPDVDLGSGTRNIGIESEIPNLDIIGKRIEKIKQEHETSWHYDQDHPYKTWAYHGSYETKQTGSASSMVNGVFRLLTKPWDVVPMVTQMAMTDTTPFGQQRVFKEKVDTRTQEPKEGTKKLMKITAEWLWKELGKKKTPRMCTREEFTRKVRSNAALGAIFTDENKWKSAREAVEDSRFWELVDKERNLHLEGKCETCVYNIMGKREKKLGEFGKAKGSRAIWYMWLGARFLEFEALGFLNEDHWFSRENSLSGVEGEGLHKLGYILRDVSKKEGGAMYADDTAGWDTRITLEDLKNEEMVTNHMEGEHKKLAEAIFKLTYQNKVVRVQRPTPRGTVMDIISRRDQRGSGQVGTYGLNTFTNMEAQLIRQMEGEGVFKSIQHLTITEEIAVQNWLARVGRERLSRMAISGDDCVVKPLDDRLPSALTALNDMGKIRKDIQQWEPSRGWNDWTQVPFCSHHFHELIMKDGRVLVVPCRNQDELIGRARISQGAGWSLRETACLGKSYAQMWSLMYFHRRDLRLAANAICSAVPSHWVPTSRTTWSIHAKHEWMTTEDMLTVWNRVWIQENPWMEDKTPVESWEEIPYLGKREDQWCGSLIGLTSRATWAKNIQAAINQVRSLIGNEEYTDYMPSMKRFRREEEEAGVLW

Consider `C=Cc1c(C)c2cc3[nH]c(cc4nc(cc5nc(cc1[nH]2)C(C)=C5CCC(=O)O)C(CCC(=O)O)=C4C)c(C)c3C=C`, for which the IC50 was 34.6 µM.
The value for `CCCCC1(C)OC(=O)C(=Cc2ccc(-c3ccc(Cl)c(C(=O)O)c3)o2)C(=O)O1` (configuration not stated) was 14 µM.

The values are drawn from PubChem BioAssay AID588689 (Southern Research Specialized Biocontainment Screening …, 2011).
